These results are taken from ChEMBL document CHEMBL1201862, “PubChem BioAssay data set” (2004).

Assay in all cases: NCI-60 cell line screen, 48 h
Test [1] has as its system UACC-62.
The test system of test [2] is NCI-H23.
In test [3] the test system is COLO 205.
Test [4] deals with A498.
The test system of test [5] is NCI-H460.
Test [6] relates to HL-60.
In test [7] the test system is ACHN.
Test [8] has as its system HT-29.
Test [9] deals with Malme-3M.
Test [10] deals with SK-MEL-5.
Test [11] has as its system LOX IMVI.
Test [12] concerns HOP-92.
The test system of test [13] is RXF 393.
Test [14] has as its system A549.
Test [15] has as its system M14.
Test [16] concerns UACC-257.
Test [17] concerns SF-268.
Test [18] relates to 786-0.
The subject of test [19] is CCRF-CEM.
Test [20] deals with SN12C.

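Each compound was tested at five concentrations against cells in 96-well plates for 48 hours. GI50 marks 50% less growth.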 Active and inactive are the calls of the source. Cut-off read from the data, not from the text of the source: active = GI50 up to about 1.1 µM and inactive = higher.

`CCN(CC)c1c(C(=O)/C=C/c2ccc(Cl)cc2)c(-c2ccccc2)nn(C)c1=O`: the GI50 in test [1] was 1.71 µM (inactive); in test [2] it was 1.68 µM (inactive); in test [3], 2.03 µM (inactive); in [4], 2.03 µM (inactive); in test [5] it was 1.93 µM (inactive); in test [6] it was 1.19 µM (inactive). The GI50 in test [7] was 1.87 µM (inactive); in test [8], 1.77 µM (inactive); in test [9] it was 2.22 µM (inactive); in test [10] it was 1.72 µM (inactive); in test [11] it was 1.9 µM (inactive); in test [12], 1.63 µM (inactive). Moreover, the GI50 in test [13] is 1.47 µM (inactive); in [14], 1.92 µM (inactive); in test [15] it was 2.08 µM (inactive); in test [16] it was 1.93 µM (inactive); in [17], 1.7 µM (inactive); in [18], 1.85 µM (inactive). For the same compound, the GI50 in test [19] was 1.97 µM (inactive); in [20], 2.1 µM (inactive).
On to `O=C(C1=C(C(=O)c2ccccc2)SC2(S1)C(C(=O)c1ccccc1)=C(C(=O)c1ccccc1)Sc1c2ssc1=O)c1ccccc1`, for which the GI50 was 22.4 µM (inactive) in test [1]; > 100 µM (inactive) in test [2]; > 100 µM (inactive) in test [3]; 17.2 µM (inactive) in [4]; 31.5 µM (inactive) in test [5]; 11.2 µM (inactive) in test [6]. For the same compound, the GI50 in test [7] is 37.5 µM (inactive); in [8], > 100 µM (inactive); in test [9], > 100 µM (inactive); in test [10], 43.6 µM (inactive); in [11], > 100 µM (inactive); in test [12] it was > 100 µM (inactive). Also, the GI50 in [13] was 34.8 µM (inactive); in test [14], 30.5 µM (inactive); in test [15], 37.3 µM (inactive); in test [16], > 100 µM (inactive); in test [17], 67.5 µM (inactive); in test [18], 31.1 µM (inactive). For the same compound, the GI50 in [19] was 8.34 µM (inactive); in test [20], 26.7 µM (inactive).
Consider `COc1cc(C(=O)CC2OC(=O)C(Cl)=C2Cl)ccc1Cl` (configuration not stated), for which the GI50 in test [1], in test [2], in [3], in [4], in test [5] and in test [6] was > 100 µM (inactive) each time. Further, the GI50 in test [7], in test [8], in test [9], in test [10], in test [11] and in [12] was > 100 µM (inactive) in each case. For the same compound, the GI50 in test [13] was > 100 µM (inactive); in [14], > 100 µM (inactive); in [15], > 100 µM (inactive); in test [16] it was > 100 µM (inactive); in [17], > 100 µM (inactive); in test [19], 69 µM (inactive). Moreover, in test [20], the GI50 is > 100 µM (inactive).
For `CSc1nc2c(nc(N)n2C2OCC(O)C(O)C2O)c(=O)[nH]1` (configuration not stated), the GI50 in test [1], in [2], in [3], in test [4], in test [5] and in test [6] was > 100 µM (inactive) in each case. The GI50 in test [7], in test [8], in [9], in [10], in [11] and in test [12] was > 100 µM (inactive) throughout. Further, the GI50 in test [13], in [14], in test [15], in test [16], in test [17] and in test [18] was > 100 µM (inactive) throughout. The GI50 in [19] and in test [20] was > 100 µM (inactive) in each case.
Regarding `C=C=C(Sc1ccccc1)C(C)(C)OC(C)=O`, the GI50 in test [1] was 14.3 µM (inactive); in test [2] it was 17.2 µM (inactive); in [3], 18.4 µM (inactive); in test [4] it was 19 µM (inactive); in [5] it was 21.1 µM (inactive); in test [6], 26.7 µM (inactive). The GI50 is > 10 µM (inactive) in test [7]; 18.7 µM (inactive) in test [8]; 18.3 µM (inactive) in test [9]; 15.8 µM (inactive) in [10]; 16.5 µM (inactive) in [11]; 15.8 µM (inactive) in [12]. For the same compound, the GI50 in test [13] is 14.7 µM (inactive); in test [14] it was 23.9 µM (inactive); in test [15], 17.4 µM (inactive); in [16], 17.2 µM (inactive); in test [17], 13.9 µM (inactive); in [18], 16.5 µM (inactive). Besides, the GI50 in test [19] was 20.2 µM (inactive); in test [20], 16.2 µM (inactive).
With `N#CC(C#N)=C1CCC2C(=C(C#N)C#N)CCC12` (configuration not stated), the GI50 in test [1], in test [2], in test [3], in test [4], in test [5] and in [6] was > 100 µM (inactive) throughout. Also, the GI50 in test [8], in [9], in [10], in test [11], in test [12] and in test [13] was > 100 µM (inactive) each time. The GI50 in test [14], in test [15], in [16], in test [17], in [18] and in [19] was > 100 µM (inactive) each time. The GI50 in test [20] was > 100 µM (inactive).
As for `C1=CCN(c2ccccc2)CC1`, the GI50 in [1] is 30.3 µM (inactive); in test [2] it was 31.5 µM (inactive); in test [3], 34.5 µM (inactive); in [4], > 100 µM (inactive); in test [5], > 100 µM (inactive); in test [6], 11.9 µM (inactive). Also, the GI50 in [7] was 21.5 µM (inactive); in test [8], 23.6 µM (inactive); in test [9] it was 22.6 µM (inactive); in test [10], 62.7 µM (inactive); in [11], 43.9 µM (inactive); in [12], 21.2 µM (inactive). The GI50 in test [13] was 12.2 µM (inactive); in [14], > 100 µM (inactive); in test [15] it was 19.9 µM (inactive); in test [16] it was 28.4 µM (inactive); in [17], 36.6 µM (inactive); in [19], 6.38 µM (inactive). Also, the GI50 in test [20] is 26.3 µM (inactive).
As for `C/C(C[n+]1ccccc1)=N\N=C(N)N`, the GI50 in [1], in test [2], in test [3], in [4], in test [5] and in test [6] was > 100 µM (inactive) throughout. In addition, the GI50 in test [7], in [8], in test [9], in test [10], in [11] and in test [12] was > 100 µM (inactive) each time. Also, the GI50 in [13], in [14], in [15], in test [16], in [17] and in test [18] was > 100 µM (inactive) in each case. For the same compound, the GI50 in [19] and in test [20] was > 100 µM (inactive) in each case.
As for `COc1oc(C2C/C(=C/C(C)=C/C(C)=C/C(C)=C/c3ccc([N+](=O)[O-])cc3)CO2)c(C)c(=O)c1C` (configuration not stated), the GI50 in test [1] was 5 µM (inactive); in test [2], 1.79 µM (inactive); in test [3], 3.55 µM (inactive); in [4], 6.89 µM (inactive); in test [5] it was 1.26 µM (inactive); in test [6] it was 1.68 µM (inactive). Besides, the GI50 in test [7] was 1.12 µM (active); in [8], 3.14 µM (inactive); in test [9], 3.61 µM (inactive); in test [10], < 0.01 µM (active); in [11] it was 4.02 µM (inactive); in [12], 6.95 µM (inactive). The GI50 was 17.9 µM (inactive) in [13]; 1.74 µM (inactive) in test [14]; 6.03 µM (inactive) in [15]; 5.32 µM (inactive) in [16]; 10.3 µM (inactive) in test [17]; 5.64 µM (inactive) in test [18]. For the same compound, the figures for the GI50 in test [19] and in test [20] were 2.63 µM (inactive) and 2.57 µM (inactive), respectively.
On to `Cc1cc(C)c2c(O)cc(-c3cccc4ccccc34)nc2n1`, for which the GI50 was 0.349 µM (active) in test [1]; 2.13 µM (inactive) in test [2]; 0.41 µM (active) in test [3]; 0.474 µM (active) in [4]; 0.653 µM (active) in test [5]; 0.26 µM (active) in test [6]. For the same compound, the GI50 in test [7] was 0.594 µM (active); in [8], 0.363 µM (active); in [9], 0.28 µM (active); in test [10], 0.381 µM (active); in test [11], 0.628 µM (active); in [12] it was 0.361 µM (active). Further, the GI50 in [13] was 0.746 µM (active); in test [14], 0.867 µM (active); in [15], 0.745 µM (active); in test [16] it was 0.238 µM (active); in test [17], 2.58 µM (inactive); in test [18], 0.612 µM (active). Further, the values for the GI50 in [19] and in test [20] were 0.719 µM (active) and 2.78 µM (inactive), respectively.
